In article PMC9381674 (Cardiology and Therapy, 2022):
Like-named read-outs stand apart in the source and are kept apart here.

Columns and labels:
[1] = compared to intravenous administration; extensive first-pass effect; cited from earlier work
CYP3A4/5 [2] = details: strong index inhibitor of CYP3A4/5; cited from earlier work
P-gp = details: inhibitor for P-gp; cited from earlier work
[3] = format: in vivo, human
Safety assessments = format: in vivo, human; details: single dose of milvexian alone and in combination with itraconazole or diltiazem
CYP3A4/5 [4] = details: preclinical results; ref unpublished data; cited from earlier work
P-glycoprotein (P-gp) = details: preclinical results; ref unpublished data; cited from earlier work
[5] = test system: arterial and venous thrombosis; details: preclinical models of arterial and venous thrombosis; cited from earlier work
[6] = co-administration of itraconazole

Compound: COc1ccc([C@@H]2Sc3ccccc3N(CCN(C)C)C(=O)[C@@H]2OC(C)=O)cc1 [Diltiazem]
- absolute oral bioavailability [1]: about 40%

Compound: CCC(C)n1ncn(-c2ccc(N3CCN(c4ccc(OCC5COC(Cn6cncn6)(c6ccc(Cl)cc6Cl)O5)cc4)CC3)cc2)c1=O (stereo not shown) [Itraconazole]
- increase in the AUC of sensitive substrates (CYP3A4/5 [2]): ≥ 10 fold
- increase in the AUC of digoxin (P-gp): > 1.25 fold

Compound: C[C@@H]1CCC[C@H](n2cnc(-c3cc(Cl)ccc3-n3cc(Cl)nn3)cc2=O)c2cc(ccn2)-c2c(cnn2C(F)F)NC1=O [Milvexian]
- AUC(0–T) higher compared with milvexian alone ([3]; co-administration of diltiazem): 38%
- AUC(INF) higher compared with milvexian alone ([3]; co-administration of diltiazem): 38%
- C24 higher compared with milvexian alone ([3]; co-administration of diltiazem): 64%
- mean Cmax higher compared with milvexian alone ([3]; co-administration of diltiazem): 9.6%
- mean T1/2 longer compared with milvexian alone ([3]; co-administration of diltiazem): ~1.1 fold
- AUC(0–T) higher compared with milvexian alone [3, 6]: 2.5 fold
- AUC(INF) higher compared with milvexian alone [3, 6]: 2.5 fold
- C24 higher compared with milvexian alone [3, 6]: 3.8 fold
- mean T1/2 longer compared with milvexian alone [3, 6]: approximately 1.5 fold
- effect of co-administration on median Tmax of milvexian ([3]; co-administration of itraconazole or diltiazem): not altered
- impact of a moderate CYP3A inhibitor on milvexian exposure ([3]; diltiazem co-administration): less than 2.5 fold
- impact of a strong CYP3A inhibitor on milvexian exposure ([3]; itraconazole co-administration): < 5 fold
- deaths or serious AEs during the study (Safety assessments): no deaths or serious AEs
- substrate of CYP3A4/5 (CYP3A4/5 [4]): substrate of CYP3A4/5
- substrate for P-glycoprotein (P-glycoprotein (P-gp)): substrate for P-glycoprotein
- antithrombotic activity [5]: demonstrated antithrombotic activity while preserving homeostasis
